Test system: subject having diabetes with A1C as high as 13
Assay: blood A1C level of a diabetic subject, astaxanthin alone and then the daily dose (Example 4)
Type: in vivo, human
Details: one subject, 12-24 mg of astaxanthin a day
From the text: They begin taking softgel capsules of the daily dose of Example 1 and after 6 weeks their blood A1C level is 5.6 with no changes in diet or habits.

## CC1=C(/C=C/C(C)=C/C=C/C(C)=C/C=C/C=C(C)/C=C/C=C(C)/C=C/C2=C(C)C(=O)C(O)CC2(C)C)C(C)(C)CC(O)C1=O (stereo not drawn) [astaxanthin, 3,3′-dihydroxy-β-carotene-4,4′-dione]
  blood A1C levels: ≤ 13%
